Measurements: patent US5466716A, “Liposomal trimethylsphingosine” (The Biomembrane Institute, priority 1994, dated 1995)
“Also recorded” adds a separate entry of the source. Read-outs that look alike come from different tables or passages of the source.

Tests used:
neutrophils [1] = test: neutrophil viability (trypan blue exclusion); assay type: cell-based, human; settings: for cytotoxic damage to neutrophils: 25 μM
Description: (§1) The viability was evaluated by trypan blue exclusion assay. The cell
(§2) incubated at 37° C. for 10 min with effectors. The aliquot was
(§3) mixed with an equal amount of trypan blue solution and immediately counte
(§4) under a Nikon light microscope.

[2] = neutrophil viability (trypan blue exclusion); assay type: cell-based, human; settings: neutrophils
Description: as §1, §2, §3, §4

HL60 cells = test: HL60 cell binding to activated platelets; assay type: cell-based, human; settings: thrombin- and PMA-stimulated platelets
Description: FIGS. 12A and 12B depict results of representative experiments assessing the degree of HL60 binding to platelets. Platelets were exposed to inhibiting compounds (symbols are the same as in the legend to FIGS. 11A and 11B) and affixed to the wells of a microtiter plate. HL60 cells labelled with tritiated thymidine were introduced into the wells and the amount of bound radioactivity was assessed.
HL60 (a human promylelocytic cell line available from the ATCC under accession number CCL 240) adhesion on resting or activated platelet-coatedsolid phase was evaluated as follows. Each well of a 48-well plate (Costar Scientific, Cambridge, Mass.) was filled with a poly-L-lysine solution (100 μg/ml in PBS) and incubated for 1 hour. Each well then was washed with PBS and then 150 μl of PBS containing 6×10^7 resting or activated platelets were added to each well and the plate was incubated for 1 hour. Plates were centrifuged (300×g for 7 minutes) and incubated a further 30 minutes at room temperature. Bound platelets were fixed by addition of 0.1% (w/v) glutaraldehyde in PBS for 2 minutes at 4° C. Each well was washed with 10 mM glycine in PBS and plates were incubated with 5% (w/v) BSA containing 0.1% (w/v) sodium azide, 10 mM glycine in PBS for 1 hour at room temperature.
After washing with culture medium (RPMI 1640 containing 5% (v/v) FCS), 1×10^6 HL60 cells labeled with [^3 H]thymidine were added to each well. HL60 was maintained in RPMI 1640 medium (purchased from Irvine Scientific, Santa Ana, Calif.) supplemented with 10% FCS (Hyclone, Logan, Utah). (Radiolabeling of HL60 cells used for cell adhesion assays was performed by incubating cells with 2 μCi/ml of [^3 H]thymidine overnight.) After incubation for 45 minutes at room temperature, unbound cells were aspirated and wells were washed once with medium (RPMI 1640 containing 5% (v/v) FCS), bound cells were detached with 0.05% (w/v) trypsin-0.02% (w/v) EDTA (Irvine Scientific) in PBS and the levels of radioactivity in each well were determined in a liquid scintillation counter.

water solubility = assay type: physicochemical; settings: for appearance of aqueous solution: neutral or physiologic pH
Description: For comparison purposes those same test cells also are exposed to sphingosine and N,N-dimethylsphingosine.

neutrophils [3] = test: neutrophil transmigration through HUVEC monolayer; assay type: cell-based, human
Description: A characteristic of neutrophils is the ability to adhere to activiated EC's and to migrate through the EC monolayer into the vascular or extravascular matrix. The effect of TMS on neutrophil interactions with EC's and their subsequent trans-endothelial migration thereof can be monitored in vitro using human umbilical endothelial cells (HUVEC's) (Luscinskas et al., J. Imm., 146, 1617, 1991). Neutrophils are added to a HUVEC monolayer and neutrophil-HUVEC interactions are assessed microscopically following fixation, embedding and staining of monolayer sections.
Cross-sections (2 μm) of the collagen bed with HUVEC's and neutrophils
were observed using a Zeiss light microscope with KPL W10 ahd Ph2 Neoflua
16 lenses. The number of cells transmigrated were counted for each view.
HUVEC's and culture media were purchased from Cell Systems (Kirkland, Wash.). The cells were maintained and cultured as described in Luscinskas et al., supra, with some modifications. Briefly, HUVEC's were maintained in 10 ml tissue culture flasks on a collagen type I bed obtained from rat tail (Upstate Biotechnology Inc, Lake Placid, N.Y.) with CS-complete medium, CS-growth factor and CS-AF-1 (Cell Systems). Cells became confluent within 2 to 4 days when incubated in 5% CO2 at 37° C.
For the transmigration assay, thick gels were formed in 24-well tissue culture plates. Preparation of the gel solution was carried out at 4° C. Eight parts of collagen solution (Vitrogen 100, from bovine tendon which contained less than 5 ng/ml endotoxin; Celtrix Labs, Palo Alto, Calif.), one part of 10×RPMI and one part of alkaline solution (2.2 g NaHCO3 in 100 ml of 0.05N NaOH and 200 mM HEPES) were mixed gently and distributed at 0.7 ml/well. The solution was left for 4 hr at 37° C. to eliminate air bubbles, then allowed to gel in a 37° C. oven for 3 hr. The wells were washed with 1.0 ml of CS-complete medium with attachment factors at least 4 times and every 3 to 6 hr during further incubation at 37° C. in 5% CO2.
HUVEC's at a passage level of less than 3 were detached from 10 ml tissue culture flasks with 3 ml of Trypsin-EDTA at 37° C. for 30 to 60 sec. Immediately, 3 ml of M199 with 20% heat-inactivated FCS was added. Cells were collected by centrifugation. The pellet was resuspended in 10 ml of CS-complete medium with attachment factors. Homogeneous cell suspensions were plated at 0.7 ml to each well and the plates were incubated for 3 hr at 37° C. The supernatant, which contains dead cells, was aspirated carefully and fresh complete medium with attachment factors was added.
The HUVEC monolayer in 24-well tissue culture plates were washed with M199 without FCS, then incubated with 1 ml/well of IL-1β (Boehringer Mannheim Biochemical Products, Indianapolis, Ind.) dissolved in M199 with 1% heat-inactivated FCS (HIFCS) at 10 U/ml. The plates were incubated at 37° C., 5% CO2 for 4 hr then washed gently with 1 ml of M199. The purified neutrophil suspension (1.5×10^6 cells/ml) in M199 containing 1% HIFCS was pre-incubated with TMS, or other effectors, for 10 min at 37° C. After aspirating the media in the well, 0.5 ml of the neutrophil suspension were added onto the HUVEC monolayer. The tissue culture plate was incubated for 90 min at 37° C.
The culture was terminated by gently aspirating the cell suspension, adding 1 ml of 10% formaldehyde in PBS and stored at 4° C. overnight for fixation. The edge of the collagen bed was cut with a small spatula along the wall 2 hr before removal from the well. The collagen bed, which has HUVEC's on the surface and transmigrated neutrophils within was embedded in paraffin, sectioned and followed by staining with hematoxylin-eosin for microscopic examination.

protein kinase-C = settings: cited from earlier work
[4] = chloride salts and slightly acidic pH
[5] = Table III, control 94, read-out: Viability

water solubility (water solubility; particularly at physiologic pH) | Molecule | cytotoxic damage to neutrophils (neutrophils [1]) | cytotoxicity at 10 min, 15 µM [2] | viability at 10 min, 5 µM ([2]; Table V, 37° C., 10 min) | viability at 10 min, 25 µM ([2]; Table V, 37° C., 10 min) | viability at 10 min, 45 µM ([2]; Table V, 37° C., 10 min) | inhibition of HL60 cell binding (HL60 cells) | water solubility (water solubility; [4]) | appearance of aqueous solution (water solubility) | viability at 10 min, 15 µM [2, 5] | also measured
less water soluble | CCCCCCCCCCCCC/C=C/[C@@H](O)[C@H](CO)N(C)C [DMS, (4E)-N,N-dimethyl-D-erythro-sphingosine] | major cytotoxic damage to neutrophils | 12 to 13% | 96 ± 3% | 29 ± 5% | 0% | inhibited strongly | soluble in water | tend to form opaque suspensions | – | viability at 10 min, 15 µM ([2]; Table V, 37° C., 10 min, read-out: Viability of neutrophils): 88 ± 8%
highly water soluble | CCCCCCCCCCCCC/C=C/[C@@H](O)[C@H](CO)[N+](C)(C)C [TMS, N,N,N-trimethylsphingosine] | negligible | – | 98 ± 2% | 83 ± 6% | 63 ± 8% | inhibited strongly | – | – | 97 ± 2.9% | cell cytotoxicity (neutrophils [1]; 15 μM): no significant cell cytotoxicity; cell viability during transmigration (neutrophils [1]; 15 μM): without affecting the viability of the cells; cell viability (neutrophils [1]; Examples 9 and 10): without an adverse effect on cell viability; also recorded: without effecting cell viability; solubility in aqueous solvents (water solubility): excellent solubility; solubility (water solubility; acidic, neutral or basic conditions): stable, clear solutions; inhibition of neutrophil migration (neutrophils [3]; 8 μM pre-treatment): inhibited strongly; number of cells migrating through the EC monolayer (neutrophils [3]; 15 μM): greatly reduces the number of cells migrating; inhibition of neutrophil migration (neutrophils [3]; 25 μM pre-treatment): completely inhibited; neutrophil migration (transmigration) (neutrophils [3]; Example 10): affected neutrophil migration; activity at 4 µM (neutrophils [3]; Homo sapiens, Neutrophil, 1.5 h, Table II, 4 μM, control 100, read-out: neutrophil transmigration (number of cells transmigrated)): 96 ± 18%; activity at 8 µM (neutrophils [3]; Homo sapiens, Neutrophil, 1.5 h, Table II, 8 μM, control 100, read-out: neutrophil transmigration (number of cells transmigrated)): 66 ± 28%; activity at 15 µM (neutrophils [3]; Homo sapiens, Neutrophil, 1.5 h, Table II, 15 μM, control 100, read-out: neutrophil transmigration (number of cells transmigrated)): 41 ± 8.7%; activity at 25 µM (neutrophils [3]; Homo sapiens, Neutrophil, 1.5 h, Table II, 25 μM, control 100, read-out: neutrophil transmigration (number of cells transmigrated)): 6.8 ± 4.1%; activity at 45 µM (neutrophils [3]; Homo sapiens, Neutrophil, 1.5 h, Table II, 45 μM, control 100, read-out: neutrophil transmigration (number of cells transmigrated)): 1.2 ± 1.2%; activity at 15 µM (neutrophils [3]; Homo sapiens, Neutrophil, 1.5 h, Table III, 15 μM, control 100, read-out: Number of Cells/View): 39 ± 17%
– | Calphostin C | – | – | – | – | – | – | – | – | – | Viability (neutrophils [1]; Table III, 5 μM, control 94, 10 min): 46 ± 5.5; Number of Cells/View (neutrophils [3]; Table III, 5 μM, control 100, 90 min): 19 ± 8.9; concentration reported to inhibit protein kinase-C (protein kinase-C; in vitro, Tamaoki & Nakano): 0.05 µM

Molecule | water solubility (water solubility; particularly at physiologic pH) | cytotoxic damage to neutrophils (neutrophils [1]) | cytotoxicity at 10 min, 15 µM [2] | viability at 10 min, 5 µM ([2]; Table V, 37° C., 10 min) | viability at 10 min, 25 µM ([2]; Table V, 37° C., 10 min) | viability at 10 min, 45 µM ([2]; Table V, 37° C., 10 min) | inhibition of HL60 cell binding (HL60 cells) | water solubility (water solubility; [4]) | appearance of aqueous solution (water solubility) | viability at 10 min, 15 µM [2, 5] | also measured
CCCCCCCCCCCCC/C=C/[C@@H](O)[C@@H](N)CO [SPN, sphingosine] | less water soluble | major cytotoxic damage to neutrophils | 12 to 13% | 95 ± 3% | 53 ± 18% | 5 ± 5% | minimally inhibited | soluble in water | tend to form opaque suspensions | 87 ± 5.3% | activity at 15 µM (neutrophils [3]; Homo sapiens, Neutrophil, 1.5 h, read-out: Number of Cells/View): 36 ± 12%; PK-C inhibition (protein kinase-C; below 100 μM, Igarashi et al.): did not inhibit PK-C
